Where two headings read alike, the source gives them in different places. Marks after values point to notes of the source that are not given here.
Tests used:
[1] = test system: Jbo/+ mice; assay: Click-evoked Auditory Brain Stem response (ABR) change in drug-treated Junbo (Jbo/+) mice, chronic otitis media model; format: in vivo, mouse
Procedure: (§1) Drug treatment, ABR and analysis of inflammation. […] The sham
(§2) Jbo/+ group was matched for age, gender and pre-trial ABR (30-60 dB) and received vehicle alone. A click-evoked ABR (Zheng, Q. Y., et al. (1999) Hearing Res. 130, 94-107) was measured at the beginning and end of the trial (or after 3 wk in the 50 mg/kg PTK787 trial). For ABR with recovery, anesthesia was induced by i.p. injection with a mixture of 10 mg/kg xylazine and 100 mg/kg ketamine and was reversed by 5 mg/kg atipamezole hydrochloride. Histology was assessed at 4 wk in both PTK787 trials.
(§3) Statistics. Student t-tests or Mann Whitney U tests (for ABR measurements where interval data was in 5 dB increments) were performed and test values p<0.05 were considered significant. Percentages were arcsine transformed before using t-tests. In the drug trials, 1-tailed tests were used compare drug and sham-treated groups, otherwise 2-tailed tests were used.

[2] = test system: WT mice; assay: Click-evoked ABR change in drug-treated WT littermate mice; format: in vivo, mouse
Procedure: as §1, §2, §3

[3] = test system: Jbo/+ mice middle ear mucosa; assay: Histological analysis of inflammation in middle ear mucosa of drug-treated Jbo/+ mice; format: in vivo, mouse
Procedure: as §1, §2
Image capture and analysis. Digital images were captured on an Olympus BX51 microscope using ×20, ×40 or ×60 Plan Achromat objectives with neutral density filter, on a ColorView Soft Imaging System software using automatic exposures. In the drug trials, H&E stained sections for image analysis were scanned at ×400 magnification on a Nanozoomer digital pathology system (Hamamatsu Photonics). Eardrum thickness and the thickness of the mucosa along its medial surface (avoiding the cochlea and the region adjacent to the opening of the Eustachian tube) were averaged from 5 measurements. The number of capillaries and lymphatic vessels and their respective diameters were measured in a standardized 1000 μm length of medial mucosa. The treatment and genotype were blinded from the assessor when making the morphological measurements.
as §3

[4] = test system: mice; conditions: mouse, in vivo, po
Excerpt: as §1

[5] = both 50 mg/kg and 75 mg/kg trials, 4 wk, vs sham

SMILES: CO[C@H]1/C=C\C=C(/C)C(=O)NC2=CC(=O)C(NCCN(C)C)=C(C[C@@H](C)C[C@H](OC)[C@H](O)[C@@H](C)/C=C(\C)[C@@H]1OC(N)=O)C2=O [17-DMAG, 17-dimethylaminoethylamino-17-demethoxy-geldanamycin]
- Effect on hearing loss ([1]; Jbo/+ mice, 10 mg/kg, 28 d treatment, vs sham (FIG. 6E)): moderated hearing loss

SMILES: CNC(=O)c1cc(Oc2ccc(NC(=O)Nc3ccc(Cl)c(C(F)(F)F)c3)cc2)ccn1 [BAY 43-9006]
- ΔABR (dB) Jbo/+ drug ([1]; Jbo/+ mice, 30 mg/kg, 15 days, oral gavage once a day, mean ± SEM (n)): 0.9 ± 1.5 (11)^e dB
- Effect on hearing loss ([1]; Jbo/+ mice, treatment for 2 wk, vs sham control): reduced hearing loss
- ΔABR (dB) WT ([2]; 30 mg/kg, 15 days, mean ± SEM (n)): −2.0 ± 1.2 (5) dB
- Lymphatic vessel dilation ([3]; 2 wk trial, n=11, sham 14.2±0.9 μm, P=0.0072): 9.9±1.0 μm
- Tolerability / adverse signs ([4]; Junbo (Jbo/+) mutant and WT, 2 wk): not as well tolerated as PTK787
- Tolerability / adverse signs [4]: mice suddenly became piloerect

SMILES: Clc1ccc(Nc2nnc(Cc3ccncc3)c3ccccc23)cc1 [PTK787/ZK 222584]
- ΔABR (dB) WT ([2]; 50 mg/kg, 21 days, mean ± SEM (n)): −0.6 ± 1.1 (8) dB
- ΔABR (dB) WT ([2]; 75 mg/kg, 28 days, mean ± SEM (n)): 0.0 ± 0.9 (8) dB
- Mucosal thickening ([3]; 50 mg/kg trial, 4 wk, vs sham): moderated mucosal thickening
- Lymphatic vessel dilation ([3]; 75 mg/kg dosage group, 4 wk, vs sham): moderated
- Angiogenesis (blood vessel number in mucosa) [3, 5]: reduced
- Lymphatic vessel number [3, 5]: reduced

SMILES: CN(CCOc1ccc(CC2SC(=O)NC2=O)cc1)c1ccccn1 (stereo not shown) [Rosiglitazone]
- ΔABR (dB) Jbo/+ drug ([1]; Jbo/+ mice, 20 mg/kg, 28 days, mean, SEM (n) printed in the row below): 9.7 dB
- ΔABR (dB) WT ([2]; 20 mg/kg, 28 days, mean, SEM (n) printed in the row below): 1.4 dB

SMILES: CCN(CC)CCNC(=O)c1c(C)[nH]c(/C=C2\C(=O)Nc3ccc(F)cc32)c1C [SU-11248]
- Effect on hearing loss ([1]; Junbo mice, 28 d treatment, vs sham (FIG. 6B)): moderates hearing loss
